Measured values as given in patent US20160176859A1, “High-Throughput Assay for Identifying Small Molecules that Modulate AMP-activated Protein Kinase (AMPK)” (North Carolina Central University, priority 2013, published 2016).
Entries after “also recorded” stand apart in the source; their conditions may differ. Like-named read-outs stand apart in the source and are kept apart here.

Assays:
[1] = target: T1, full-length AMPK (rat His-α1, β1, γ1) (Rattus norvegicus, UniProt P54645+P80385); assay: MANT-ADP fluorescence displacement (binding) assay, full-length AMPK; conditions: for Hill slope / IC50: full-length AMPK
T1 construct: Tricistronic vectors encoding full-length AMPK (rat His-α1, β1, γ1); made in house; host or cells: Rosetta cells (E. coli), tricistronic vector, gift of Dr. Uwe Schlattner
T1 sequence (P54645 with tags, fused parts or gaps limits assumed): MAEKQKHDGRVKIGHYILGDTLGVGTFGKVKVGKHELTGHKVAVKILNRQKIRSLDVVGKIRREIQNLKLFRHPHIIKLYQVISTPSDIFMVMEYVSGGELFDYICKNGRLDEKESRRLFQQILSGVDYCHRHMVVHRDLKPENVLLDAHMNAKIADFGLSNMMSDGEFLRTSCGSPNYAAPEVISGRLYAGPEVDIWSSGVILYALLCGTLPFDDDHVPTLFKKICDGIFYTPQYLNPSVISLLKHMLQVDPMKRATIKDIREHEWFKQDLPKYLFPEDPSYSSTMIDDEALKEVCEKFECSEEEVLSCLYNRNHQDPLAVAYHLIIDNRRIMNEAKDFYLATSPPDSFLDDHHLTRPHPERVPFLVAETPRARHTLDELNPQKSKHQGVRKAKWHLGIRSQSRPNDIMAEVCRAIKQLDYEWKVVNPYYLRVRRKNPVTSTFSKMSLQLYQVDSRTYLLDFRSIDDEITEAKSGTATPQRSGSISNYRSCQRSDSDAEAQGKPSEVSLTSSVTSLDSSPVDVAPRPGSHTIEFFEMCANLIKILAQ
T1 sequence (P80386 whole entry partner): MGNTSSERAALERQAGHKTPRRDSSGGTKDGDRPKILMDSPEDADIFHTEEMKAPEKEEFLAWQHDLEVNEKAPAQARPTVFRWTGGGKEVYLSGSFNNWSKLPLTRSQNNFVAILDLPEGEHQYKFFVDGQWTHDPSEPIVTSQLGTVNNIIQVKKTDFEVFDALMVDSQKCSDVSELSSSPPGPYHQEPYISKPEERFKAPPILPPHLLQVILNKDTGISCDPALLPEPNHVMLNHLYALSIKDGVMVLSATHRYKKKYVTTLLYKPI
T1 sequence (P80385 whole entry): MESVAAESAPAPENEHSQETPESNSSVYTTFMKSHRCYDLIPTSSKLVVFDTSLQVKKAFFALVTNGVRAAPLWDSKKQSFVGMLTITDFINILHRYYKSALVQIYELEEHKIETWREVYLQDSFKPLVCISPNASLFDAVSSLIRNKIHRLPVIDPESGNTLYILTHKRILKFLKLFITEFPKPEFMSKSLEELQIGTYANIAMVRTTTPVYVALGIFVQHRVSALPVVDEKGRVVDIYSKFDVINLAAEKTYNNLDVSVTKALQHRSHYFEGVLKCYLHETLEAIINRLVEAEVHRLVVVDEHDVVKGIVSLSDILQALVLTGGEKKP
Protocol: (§1) Except where otherwise noted, assays were performed with the following conditions: 0.5 μM full-length AMPK (130 kDa) or 0.5 μM regulatory fragment (66.7 kDa), 0.1 μM MANT-ADP, 10 mM Tris-HCl (pH 8), 0.45% DMSO (vehicle and negative control), and 5 μM ADP (positive control). Automated assays were assembled in two steps. First, a NanoQuot (BioTek) was used to dispense 11 μL of master mix (protein, MANT-ADP, and Tris-HCl) per well in black, low volume 384-well plates (Corning-3676). Next, a Biomek NX workstation (Beckman-Coulter, Brea, Calif.) equipped with pintools (VP Scientific, San Diego Calif.) was used to transfer 50 nL of controls (columns 1, 2, 23, and 24) and small molecules (4.5 μM final). Controls and library molecules were transferred from Axygen 384-well rigid PCR plates (Cat no. 321-67-051) at 221× concentration for single-concentration screening. Plates were shaken for 10 minutes prior to reading.
(§2) Fluorescence emission spectra of MANT-ADP were collected using a PerkinElmer EnSpire plate reader with an excitation wavelength of 360 nm. Background fluorescence from protein was subtracted from the raw data prior to plotting MANT-ADP's fluorescence in the presence of protein. Fluorescence detection for assay development and screening was performed on either a BMG Pherastar Plus (360/10 excitation and 460/10 emission filters) or a PerkinElmer EnVision (355/40 excitation and 460/25 emission filters), depending on equipment availability. Relative fluorescence units (RFUs) were recorded at room temperature.
(§3) ScreenAble (ScreenAble Solutions, Chapel Hill, N.C.) high-throughput screening software was utilized for merging screening data and chemical structure, for statistical design of experiments, and hit selection. GraphPad Prism was used for non-linear regression analysis of dose response data.
(§4) Binding assays. Except where otherwise noted, assay assembly and data analysis were completed according to published methods. Binding assays were manually assembled, with the exception of the similarity screen. Automated assembly of the similarity screen was completed according to published methods. Analogs were cherry-picked from a 10 mM Asinex small molecule library and a 0.5 mM kinase focused library, which has been described previously (4). Molecules were screened at a final concentration of 45 and 2.3 μM, respectively.

[2] = target: T2, AMPK regulatory fragment (rat His-α1, 396-548; human β2, 187-272; rat γ1) (Rattus norvegicus, UniProt P80385); assay: MANT-ADP fluorescence displacement (binding) assay, AMPK regulatory fragment; conditions: inhibition of MANT-ADP fluorescence; for IC50: read-out: IC50 (data in parentheses)
T2 construct: rat His-α1, 396-548; human β2, 187-272; rat γ1; made in house; host or cells: Rosetta cells (E. coli), tricistronic vector, gift of Dr. Steve Gamblin
T2 sequence (P54645 407-559 partner limits assumed): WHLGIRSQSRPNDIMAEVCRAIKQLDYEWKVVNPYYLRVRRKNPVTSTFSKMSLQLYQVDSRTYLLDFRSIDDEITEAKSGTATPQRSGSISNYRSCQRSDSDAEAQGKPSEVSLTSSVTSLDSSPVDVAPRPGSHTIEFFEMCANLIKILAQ
T2 sequence (O43741 187-272 partner limits assumed): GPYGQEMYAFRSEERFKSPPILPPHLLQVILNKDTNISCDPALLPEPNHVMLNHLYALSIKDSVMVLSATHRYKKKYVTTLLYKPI
T2 sequence (P80385 whole entry, the tested form may be a part): as the sequence (P80385 whole entry) above
Protocol: as §1, §2, §3, §4

purified p-AMPK = target: T3, purified p-AMPK (Rattus norvegicus, UniProt P54645+P80385); assay: Kinase assay with purified p-AMPK and GST-ACC peptide; type: biochemical; conditions: compared to DMSO control
T3 construct: Full-length AMPK intended for use in phosphatase and kinase assays was purified, mixed with GST-CaMKKβ; made in house; host or cells: Rosetta cells (E. coli); phosphorylated in vitro with GST-CaMKKβ, which was then removed on glutathione resin
T3 sequence (P54645 with tags, fused parts or gaps limits assumed): as the sequence (P54645 with tags, fused parts or gaps limits assumed) above
T3 sequence (P80386 whole entry partner): as the sequence (P80386 whole entry partner) above
T3 sequence (P80385 whole entry): as the sequence (P80385 whole entry) above
Protocol: Kinase assays. Assay conditions were adapted from published methods (17). The final assay buffer was comprised of 40 mM Hepes (pH 7.4) 5 mM MgCl2, 200 μM ATP, 75 mM NaCl, 0.01% Triton X-100, 1 mM DTT, and 0.45% DMSO (vehicle). Because some analogs had poor solubility at high concentrations, all analogs and controls were diluted in assay buffer and centrifuged (1 min, 5000 rpm, 4° C.) to remove insoluble matter. GST-ACC peptide and p-AMPK were thawed, diluted in assay buffer, and then added to the supernatant at final concentrations of 900 and 0.1 ng/μL, respectively. Kinase assays were assembled on ice; reactions were allowed to proceed for 30 minutes at room temperature. Reactions were stopped by the addition of loading buffer and 48 mM DTT followed promptly by freezing at −20° C.
(§5) Western analyses. Protein samples were boiled for 15 minutes in loading buffer and DTT prior to SDS-PAGE. Blots for protein-based assays were sequentially incubated with the following: 5% BSA in 1× TBS (1 hr, 22° C.), 1:1000 rabbit anti-human p-AMPK-α antibody or p-ACC antibody (2 hr, 22° C.), and 1:10,000 donkey anti-rabbit secondary antibody (1 hr, 22° C.). Blots for phosphatase assays were probed a second time using 1:100 mouse anti-human total AMPK antibody (overnight, 4° C.; from UNC Antibody Core Facility) followed by 1:10,000 donkey anti-mouse secondary antibody (1 hr, 22° C.). Blots for clarified cell lysates were sequentially probed for p-AMPK (1:500 dilution, overnight at 4° C. or 4 hours at 22° C.), total ACC (1:1000 dilution, overnight at 4° C. or 4 hours at 22° C.), and tubulin (1:10,000 dilution, 1 hr, 22° C.); a parallel set of blots were probed for p-ACC (1:500 dilution, overnight at 4° C. or 4 hours at 22° C.), total AMPK (1:1000 dilution, overnight at 4° C. or 4 hours at 22° C.), and tubulin (1:10,000 dilution, 1 hr, 22° C.). Because phosphorylated and total protein were imaged on separate membranes, the signals were normalized to the internal tubulin signal prior to calculating the ratio of phosphorylated to total protein. Scanning and imaging were completed according to published methods.

[3] = tested on: p-ACC levels in HEK cells; assay: Cell-intact assay, p-ACC levels in HEK cells; type: cell-based, human
Protocol: Cell-intact assays. HEK cells were grown in DMEM with 10% FBS and 1% penicillin/streptomycin at 37° C. A subset of plates was serum-starved for 5 hours on the day of the experiment. After 5 hours of serum-starvation, cells were treated with either controls (0.2% DMSO, A-769662, or Compound C) or small molecules in the absence of serum for an additional hour prior to lysis. Another subset of plates was serum-starved for 6 hours and then treated with either controls or small molecules for 1 hour in the presence of 10% FBS. A time course of both AMPK and ACC phosphorylation in HEK cells during serum starvation has already been published (Pirkmajer S, Chibalin A V. Serum starvation: caveat emptor. American journal of physiology Cell physiology. 2011 August; 301(2):C272-9. PubMed PMID: 2161361).
After incubating in the presence of drugs for one hour, cells were washed three times with ice-cold PBS and lysed according to published methods (Kazgan N, Williams T, Forsberg L J, Brenman J E. Identification of a nuclear export signal in the catalytic subunit of AMP-activated protein kinase. Molecular biology of the cell. 2010 Oct. 1; 21(19):3433-42. PubMed PMID: 20685962. Pubmed Central PMCID: 2947478). Lysates were centrifuged at 16,000 g (10 minutes, 4° C.). Clarified supernatant (30 μL) was then transferred to 10 μL 4X loading buffer and 2 μL 1 M DTT. Samples were immediately frozen at −20° C. The concentration of protein in diluted clarified supernatant was calculated using a DC protein assay kit (BioRad) prior to western analyses.
as §5

[4] = tested on: phospho-AMPKα in HEK cells; assay: Western blot of treated HEK cells for phospho-AMPKα (Example 3); type: cell-based, human
Protocol: Approximately 50 compounds will be tested from those identified above using the methods and assays described herein on HEK cells in culture in 6 well plate format for their ability to enter cells and modulate AMPK, initially at 1 μM, 2 μM, 10 μM and 20 μM compound in 0.1% DMSO. […] Molecular biology of the cell 23, 381-389, doi:10.1091/mbc.E11-08-0699 (2012)). Examples of this approach with compounds identified from our preliminary screening that have AMPK modulatory activity are shown in FIG. 7. […] See also FIG. 8. […] By testing under multiple conditions, the likelihood of identifying agonists and antagonists of AMPK activity in vivo, and particularly those that are not dependent on a particular means of altering AMPK activity may increase.
The phosphorylation status of AMPKα with a phospho-specific antibody (against the activation/T-loop threonine 172) (Cell Signaling) will be quantified. […] Molecular biology of the cell 21, 3433-3442, doi:10.1091/mbc.E10-04-0347 (2010)) (FIG. 7). […] In addition, phospho-ACC (Cell Signaling) will be measured by western blot. Cytoplasmic acetyl coenzyme A carboxylase (ACC) is the best known AMPK direct downstream target, and is a rate-limiting enzyme in the energy consuming process of fatty acid synthesis (Davies, S. P. et al. Purification of the AMP-activated protein kinase on ATP-gamma-sepharose and analysis of its subunit structure. European journal of biochemistry/FEBS 223, 351-357 (1994); Carling, D., Zammit, V. A. & Hardie, D. G. A common bicyclic protein kinase cascade inactivates the regulatory enzymes of fatty acid and cholesterol biosynthesis. FEBS Lett 223, 217-222 (1987)). Phospho-ACC will be standardized to both tubulin and total (non-phospho) ACC to ensure we are not measuring changes in total ACC levels. Compounds that modulate phospho-AMPKα and phospho-ACC status in the same direction (both increase or both decrease) will be prioritized over compounds that produce different affects on AMPKα versus ACC phosphorylation for in vitro kinase or phosphatase protection assays.

[5] = inhibition of MANT-ADP fluorescence
[6] = inhibition of MANT-ADP fluorescence, read-out: IC50

Row | Hill slope [1, 5] | IC50 [1, 6] [nM] | Hill slope (data in parentheses) [2] | IC50 [2] [nM] | activity of purified p-AMPK (phosphorylation of GST-ACC peptide), dose response (purified p-AMPK) | thiol-reactivity: binding curves in the presence and absence of DTT ([1]; 0-1 mM DTT) | Hill slope ([1]; Example 4) | IC50 ([1]; Example 4, read-out: binding IC50) [nM] | Structure (SMILES) | p-ACC levels, serum-treated HEK cells ([3]; 10% serum) | p-ACC levels, serum-starved HEK cells ([3]; serum-starved, 1 hour treatment) | AMPK modulatory activity ([4]; HEK cells) | phospho-AMPKα (Western blot, FIG. 7) ([4]; HEK cells, standardized to tubulin) | phospho-AMPK (FIG. 8) ([4]; human Hek293 cells)
1 | 1.1 | 300 | 2.6 | 200 |  |  |  |  | COc1cc(C(=O)/C=C/c2cc(O)c(O)c(Cl)c2)cc(OC)c1OC [Example Z64358107] |  |  |  |  | 
2 |  |  |  |  | dose-dependently inhibited |  |  |  | O=C1/C(=C/c2ccc(-c3ccc(F)cc3)o2)SC(=S)N1CCS(=O)(=O)O [STK823366, 2-[(5Z)-5-{[5-(4-fluorophenyl)furan-2-yl]methylidene}-4-oxo-2-sulfanylidene-1,3-thiazolidin-3-yl]ethane-1-sulfonic acid] | decreased phosphorylation; also recorded: decreases | decreased phosphorylation |  |  | 
3 | 1.4 (1.4) | 2900 | 1.4 (1.4) | 1600 |  | not thiol-reactive | 1.2 | 9000 | Cc1ccc(-c2ccc(/C=C3\SC(=S)N(CC(=O)O)C3=O)o2)cc1 [STK740822, 2-{(5Z)-5-{[5-(4-Methylphenyl)furan-2-yl]methylidene}-4-oxo-2-sulfanylidene-1,3-thiazolidin-3-yl}acetic acid] |  |  | activating activity | increased | increase
